Where two headings read alike, the source gives them in different places.
Assays:
EGFR^WT = EGFR^WT (Homo sapiens, UniProt P00533); assay: In vitro EGFR enzyme inhibitory assay; format: biochemical; settings: for EGFR %inh at conc 0.01: conc 0.01, unit not given; for EGFR %inh at conc 0.1: conc 0.1, unit not given; for EGFR %inh at conc 1: conc 1, unit not given; for EGFR %inh at conc 10: conc 10, unit not given
EGFR^T790M = EGFR^T790M (Homo sapiens, UniProt P00533, T790M); assay: In vitro EGFR T790M kinase inhibitory assay
Method: The assays were conducted in Vacsera (Giza, Egypt). Curve fitting was performed using GraphPad Prism. Data are represented as means ± SD from three independent experiments.
Assay : EGFR-T490M kinase assay
Reader : Tecan-spark reader
Kit used : BPS bioscience EGFR assay kit.

MCF-7 = assay: MTT cytotoxicity assay, MCF-7; format: cell-based; settings: Homo sapiens, MCF7
Method: (§5) The cytotoxic activity was assessed using the 3-(4,5-dimethylthiazol-2-yl)-2,5-diphenyl tetrazolium bromide (MTT) colorimetric assay, as reported previously [62, 63]. […] Briefly, the designated cell lines were cultured at a concentration of 5 × 10^4 cell/well in 96-well plates. The cells were incubated for 24 h under optimum conditions. Following this, the designated molecules were introduced (in serial dilutions from 0 to 50 μg/mL), and the cells were incubated for an additional 24 h. Following this, the media were withdrawn, and 100 μL of fresh medium was added. Then, 10 µL of the 12 mM MTT stock solution was administered to each well. The plates were then incubated for 4 h. Then, the cells were exposed to different compounds at the desired concentrations (0.01, 0.1, 1, 10, and 100 µM) or to 1% dimethyl sulfoxide (DMSO) for 48 and 72 h. […] Then, the optical density was measured at 590 nm with the microplate reader (Sunrise, TECAN, Inc., Morrisville, NC, USA).

[1] = system: MCF-7, HCT116, and HePG-2; assay: MTT assay against three malignant cell lines (summary); format: cell-based; settings: Homo sapiens, read-out: IC50 cytotoxicity (range over cell lines)
Method: (§1) According to our design, the tested compounds are classified into four categories based on the length and the chemotype of the spacer (Figure 3). In the first category, we used monosubstituted hydrazone linker. […] The second category is represented by […] hydrazone linker.
(§2) The cytotoxic activity was assessed using the 3-(4,5-dimethylthiazol-2-yl)-2,5-diphenyl tetrazolium bromide (MTT) colorimetric assay, as reported previously. Doxorubicin was used as a reference standard, and DMSO was used as a negative control. Briefly, the designated cell lines were cultured at a concentration of 5 × 10^4 cell/well in 96-well plates. The cells were incubated for 24 h under optimum conditions. Following this, the designated molecules were introduced (in serial dilutions from 0 to 50 μg/mL), and the cells were incubated for an additional 24 h. Following this, the media were withdrawn, and 100 μL of fresh medium was added. Then, 10 µL of the 12 mM MTT stock solution was administered to each well. The plates were then incubated for 4 h. […] An 85-μL aliquot of the media was removed from the wells, and 50 µL of DMSO was added to each well and mixed thoroughly with the pipette and incubated at 37 °C for 10 min. Then, the optical density was measured at 590 nm with the microplate reader (Sunrise, TECAN, Inc., Morrisville, NC, USA).

MCF-7 cells [2] = assay: Cell cycle analysis (propidium iodide flow cytometry); format: cell-based, human; settings: MCF-7, 3.81 μM for 24 h (text: 1 μM)
Topo-II [3] = biological target: T1, Topo-II (Homo sapiens, UniProt Q02880); assay: In vitro Topo II inhibitory assay; format: biochemical; settings: for TOPO IiB %inh at conc 0.1: conc 0.1, unit not given; for TOPO IiB %inh at conc 1: conc 1, unit not given; for TOPO IiB %inh at conc 10: conc 10, unit not given; for TOPO IiB %inh at conc 100: conc 100, unit not given
T1 construct: purchased
T1 sequence (Q02880 2-1626): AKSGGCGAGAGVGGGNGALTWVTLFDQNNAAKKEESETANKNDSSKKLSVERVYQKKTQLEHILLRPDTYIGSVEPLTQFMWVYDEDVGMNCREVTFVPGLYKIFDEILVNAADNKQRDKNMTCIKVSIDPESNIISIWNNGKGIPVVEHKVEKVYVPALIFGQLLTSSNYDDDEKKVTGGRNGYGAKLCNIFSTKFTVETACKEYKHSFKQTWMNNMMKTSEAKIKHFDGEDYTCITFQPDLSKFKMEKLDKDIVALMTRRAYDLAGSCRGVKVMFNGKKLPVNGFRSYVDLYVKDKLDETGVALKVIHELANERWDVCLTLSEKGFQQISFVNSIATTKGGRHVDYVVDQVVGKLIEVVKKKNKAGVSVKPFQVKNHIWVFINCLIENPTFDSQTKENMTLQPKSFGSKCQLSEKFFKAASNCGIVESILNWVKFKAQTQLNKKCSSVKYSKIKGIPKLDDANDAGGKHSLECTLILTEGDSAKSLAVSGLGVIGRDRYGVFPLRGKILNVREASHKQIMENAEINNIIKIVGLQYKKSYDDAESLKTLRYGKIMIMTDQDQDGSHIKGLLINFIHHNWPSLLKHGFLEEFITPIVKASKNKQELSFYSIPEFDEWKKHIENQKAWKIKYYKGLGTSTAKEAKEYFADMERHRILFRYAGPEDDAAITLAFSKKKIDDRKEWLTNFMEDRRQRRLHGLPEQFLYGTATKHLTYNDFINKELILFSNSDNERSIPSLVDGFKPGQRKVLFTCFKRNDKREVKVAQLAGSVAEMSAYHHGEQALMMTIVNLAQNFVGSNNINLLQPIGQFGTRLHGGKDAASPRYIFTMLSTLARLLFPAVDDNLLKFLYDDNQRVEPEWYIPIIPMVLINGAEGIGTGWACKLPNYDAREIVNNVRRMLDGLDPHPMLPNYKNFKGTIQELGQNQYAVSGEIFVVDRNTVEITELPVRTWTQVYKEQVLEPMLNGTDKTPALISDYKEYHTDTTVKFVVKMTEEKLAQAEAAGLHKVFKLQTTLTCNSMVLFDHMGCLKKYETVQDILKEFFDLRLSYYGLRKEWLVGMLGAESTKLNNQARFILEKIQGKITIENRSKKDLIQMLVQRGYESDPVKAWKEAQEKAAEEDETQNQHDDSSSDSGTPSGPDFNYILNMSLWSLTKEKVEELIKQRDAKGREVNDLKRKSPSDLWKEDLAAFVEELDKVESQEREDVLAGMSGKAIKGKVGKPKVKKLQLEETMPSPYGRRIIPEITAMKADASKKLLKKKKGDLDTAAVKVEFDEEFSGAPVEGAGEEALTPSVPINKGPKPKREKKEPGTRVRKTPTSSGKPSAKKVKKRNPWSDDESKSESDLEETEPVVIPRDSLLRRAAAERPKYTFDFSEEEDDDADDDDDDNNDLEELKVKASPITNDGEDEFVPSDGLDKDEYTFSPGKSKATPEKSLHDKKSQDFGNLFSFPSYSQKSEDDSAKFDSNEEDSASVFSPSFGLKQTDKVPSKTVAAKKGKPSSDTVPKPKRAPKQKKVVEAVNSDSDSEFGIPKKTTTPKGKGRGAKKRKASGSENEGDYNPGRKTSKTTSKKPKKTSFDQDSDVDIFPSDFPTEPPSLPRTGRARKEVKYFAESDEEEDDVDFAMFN
Method: (§3) Curve fitting was performed using GraphPad Prism.
(§4) (1 picture or pasted object on this page, not shown here)

Topo-II [4] = assay: In vitro Topo II inhibitory assay; format: biochemical, Human; settings: fold, EGFR^WT versus Topo-II
Method: as §3, §4

MCF-7 cells [5] = assay: Annexin V-FITC/PI apoptosis assay; format: cell-based, human; settings: MCF-7, 3.81 μM
Method: We used annexin V-binding studies via flow cytometer to confirm the apoptosis induction by our compound. The apoptotic nature of 5i against MCF-7 cells was tested via flow cytometry detection after double-staining with Annexin V-FITC and propidium iodide (PI).
Annexin V-FITC apoptosis assay was conducted utilizing the Annexin V-FITC/PI double staining detection kit (BD Pharmingen, San Diego, CA, USA), as described elsewhere.

HCT-116 = assay: MTT cytotoxicity assay, HCT-116; format: cell-based; settings: Homo sapiens
Method: as §5

HePG-2 = assay: MTT cytotoxicity assay, HePG-2; format: cell-based; settings: Homo sapiens, HepG2
Method: as §2

VEGFR-2 = VEGFR-2 (Homo sapiens, UniProt P35968); assay: In vitro VEGFR2 enzyme inhibitory assay; format: biochemical; settings: for VEGFR2 %inh at conc 0.01: conc 0.01, unit not given; for VEGFR2 %inh at conc 0.1: conc 0.1, unit not given; for VEGFR2 %inh at conc 1: conc 1, unit not given; for VEGFR2 %inh at conc 10: conc 10, unit not given; for target selectivity index EGFR over VGFR-2: fold, EGFR^WT versus VGFR-2
Sequence of VEGFR-2 (P35968 20-1356): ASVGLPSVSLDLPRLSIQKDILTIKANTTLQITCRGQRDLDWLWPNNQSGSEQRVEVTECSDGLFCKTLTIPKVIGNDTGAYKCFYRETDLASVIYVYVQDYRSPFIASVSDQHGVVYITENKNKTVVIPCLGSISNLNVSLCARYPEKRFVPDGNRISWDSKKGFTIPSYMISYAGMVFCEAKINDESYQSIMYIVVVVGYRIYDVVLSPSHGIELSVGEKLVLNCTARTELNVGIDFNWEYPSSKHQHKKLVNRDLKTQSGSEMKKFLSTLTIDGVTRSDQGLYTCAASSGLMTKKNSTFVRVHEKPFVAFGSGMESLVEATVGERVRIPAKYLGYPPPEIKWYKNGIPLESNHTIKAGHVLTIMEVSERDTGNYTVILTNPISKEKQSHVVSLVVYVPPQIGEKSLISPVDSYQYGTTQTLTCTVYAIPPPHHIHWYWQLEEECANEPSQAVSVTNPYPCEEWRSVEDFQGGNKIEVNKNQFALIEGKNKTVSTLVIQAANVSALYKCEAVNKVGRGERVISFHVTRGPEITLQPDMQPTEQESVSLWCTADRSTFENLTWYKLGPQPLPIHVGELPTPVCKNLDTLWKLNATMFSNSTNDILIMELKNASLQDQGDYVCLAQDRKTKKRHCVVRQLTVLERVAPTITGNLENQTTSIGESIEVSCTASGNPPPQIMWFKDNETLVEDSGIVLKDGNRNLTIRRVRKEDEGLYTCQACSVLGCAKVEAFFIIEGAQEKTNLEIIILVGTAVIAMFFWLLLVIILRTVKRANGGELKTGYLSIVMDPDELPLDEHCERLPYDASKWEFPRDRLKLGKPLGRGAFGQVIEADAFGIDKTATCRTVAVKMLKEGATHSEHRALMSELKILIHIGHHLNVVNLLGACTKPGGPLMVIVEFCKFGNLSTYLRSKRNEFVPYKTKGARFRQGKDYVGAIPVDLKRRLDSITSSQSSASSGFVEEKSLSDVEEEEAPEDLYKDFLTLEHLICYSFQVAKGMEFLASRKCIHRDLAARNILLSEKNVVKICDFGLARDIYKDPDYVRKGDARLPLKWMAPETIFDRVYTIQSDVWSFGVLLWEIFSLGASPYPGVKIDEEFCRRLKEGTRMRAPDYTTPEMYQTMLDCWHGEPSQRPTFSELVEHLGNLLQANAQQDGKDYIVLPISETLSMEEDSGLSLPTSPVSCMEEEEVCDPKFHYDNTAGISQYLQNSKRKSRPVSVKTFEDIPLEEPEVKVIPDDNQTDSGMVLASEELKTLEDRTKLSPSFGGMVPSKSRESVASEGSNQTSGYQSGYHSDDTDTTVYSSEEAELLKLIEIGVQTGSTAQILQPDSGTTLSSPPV
Method: as §3, §4

WI-38 = assay: MTT assay on normal cell line WI-38; format: cell-based; settings: normal human diploid fibroblasts
Method: as §1, §2

[6] = supplement lab report, read-out: EGFR IC50 (lab report) (converted)
[7] = 24 h incubation, read-out: IC50 MCF-7 24 h
[8] = 48 h incubation, read-out: IC50 MCF-7 48 h
[9] = 72 h incubation, read-out: IC50 MCF-7 72 h
[10] = MTT, breast cancer cells, read-out: IC50 MCF-7
[11] = supplement lab report, Human DNA Topoisomerase 2B Kit, read-out: TOP2a IC50 (lab report) (converted)
[12] = HCT-116, read-out: IC50 HCT-116, MTT, colon cancer cells
[13] = HCT-116, 24 h incubation, read-out: IC50 HCT116 24 h
[14] = HCT-116, 48 h incubation, read-out: IC50 HCT116 48 h
[15] = HCT-116, 72 h incubation, read-out: IC50 HCT116 72 h
[16] = 24 h incubation, read-out: IC50 HePG-2 24 h
[17] = 48 h incubation, read-out: IC50 HePG-2 48 h
[18] = 72 h incubation, read-out: IC50 HePG-2 72 h
[19] = MTT, liver cancer cells, read-out: IC50 HePG-2
[20] = supplement lab report, read-out: VEGFR2 IC50 (lab report) (converted)

Sequence of EGFR^WT (P00533 25-1210): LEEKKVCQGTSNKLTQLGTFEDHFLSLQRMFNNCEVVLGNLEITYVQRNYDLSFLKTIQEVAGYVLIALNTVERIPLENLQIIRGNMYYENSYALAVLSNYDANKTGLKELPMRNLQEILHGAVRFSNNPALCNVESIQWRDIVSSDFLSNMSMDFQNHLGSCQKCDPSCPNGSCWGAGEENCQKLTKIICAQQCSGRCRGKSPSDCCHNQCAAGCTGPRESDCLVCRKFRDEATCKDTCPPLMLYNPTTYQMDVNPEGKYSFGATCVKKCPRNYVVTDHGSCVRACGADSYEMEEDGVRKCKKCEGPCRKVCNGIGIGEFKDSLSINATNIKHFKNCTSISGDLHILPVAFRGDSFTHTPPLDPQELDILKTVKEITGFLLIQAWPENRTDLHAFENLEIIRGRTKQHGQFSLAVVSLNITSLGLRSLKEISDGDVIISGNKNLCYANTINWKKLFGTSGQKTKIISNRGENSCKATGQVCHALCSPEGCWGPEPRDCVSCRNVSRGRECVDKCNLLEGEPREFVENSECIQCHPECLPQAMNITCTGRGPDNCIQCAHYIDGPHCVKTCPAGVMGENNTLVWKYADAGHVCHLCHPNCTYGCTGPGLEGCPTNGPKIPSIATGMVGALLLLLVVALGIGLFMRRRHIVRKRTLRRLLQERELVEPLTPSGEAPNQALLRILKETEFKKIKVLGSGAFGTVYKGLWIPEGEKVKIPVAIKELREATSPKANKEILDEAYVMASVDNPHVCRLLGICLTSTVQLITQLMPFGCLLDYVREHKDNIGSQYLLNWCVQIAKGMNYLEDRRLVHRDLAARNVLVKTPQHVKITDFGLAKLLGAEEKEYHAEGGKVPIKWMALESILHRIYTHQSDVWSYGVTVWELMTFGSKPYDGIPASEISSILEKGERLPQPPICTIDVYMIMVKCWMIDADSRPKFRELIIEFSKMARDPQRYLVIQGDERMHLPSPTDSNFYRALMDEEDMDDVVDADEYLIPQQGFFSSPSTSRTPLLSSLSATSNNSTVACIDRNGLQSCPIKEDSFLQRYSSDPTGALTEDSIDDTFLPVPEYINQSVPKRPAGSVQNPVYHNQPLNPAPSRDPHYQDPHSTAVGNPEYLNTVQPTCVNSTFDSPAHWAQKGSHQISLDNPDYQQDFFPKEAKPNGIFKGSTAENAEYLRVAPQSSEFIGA

CC(=NNc1nc(C)nc2c1cnn2-c1ccccc1)c1ccccc1 [Compound 5i, 6-Methyl-1-phenyl-4-(2-(1-phenylethylidene)hydrazinyl)-1H-pyrazolo[3,4-d]pyrimidine]
EGFR %inh at conc 0.01 (EGFR^WT): 36% | EGFR %inh at conc 0.1 (EGFR^WT): 52% | EGFR %inh at conc 1 (EGFR^WT): 73% | EGFR %inh at conc 10 (EGFR^WT): 88% | IC50 (EGFR^WT; [6]): 0.187 µM | IC50 (EGFR^T790M): 0.56 ± 0.04 µM | EGFR T790M %inh at conc 0.01 (EGFR^T790M; conc 0.01 (conc.ng/ml)): 37% | EGFR T790M %inh at conc 0.1 (EGFR^T790M; conc 0.1 (conc.ng/ml)): 50% | EGFR T790M %inh at conc 1 (EGFR^T790M; conc 1 (conc.ng/ml)): 76% | EGFR T790M %inh at conc 10 (EGFR^T790M; conc 10 (conc.ng/ml)): 89% | IC50 (MCF-7; [7]): 3.81 ± 0.3 µM | IC50 (MCF-7; [8]): 3.34 ± 0.2 µM | IC50 (MCF-7; [9]): 1.24 ± 0.3 µM | IC50 (MCF-7; [10]): 3.81 ± 0.3 µM | IC50 [1]: 3 to 10 µM | DNA content %G0-G1 (MCF-7 cells [2]): 49.63% | DNA content %Pre-G1 (MCF-7 cells [2]): 36.06% | DNA content %S (MCF-7 cells [2]): 43.12% | TOPO IiB %inh at conc 0.1 (Topo-II [3]): 13% | TOPO IiB %inh at conc 1 (Topo-II [3]): 27% | TOPO IiB %inh at conc 10 (Topo-II [3]): 51% | TOPO IiB %inh at conc 100 (Topo-II [3]): 74% | IC50 (Topo-II [3]; read-out: IC50 Topo-II): 24.7 ± 0.51 µM | IC50 (Topo-II [3]; [11]): 24.7 µM | target selectivity index EGFR over Topo-II (Topo-II [4]): 66 | Apoptosis Total (MCF-7 cells [5]; 24 h): 36.06% | Necrosis (MCF-7 cells [5]; 24 h): 4.33% | Apoptosis Early (MCF-7 cells [5]; 24 h (text: 48 h)): 12.62% | Apoptosis Late (MCF-7 cells [5]; 24 h (text: 48 h)): 19.11% | melting point: 245 to 247 °C | IC50 (HCT-116; [12]): 4.38 ± 0.2 µM | IC50 (HCT-116; [13]): 4.38 ± 0.2 µM | IC50 (HCT-116; [14]): 4.01 ± 0.3 µM | IC50 (HCT-116; [15]): 2.76 ± 0.3 µM | IC50 (HePG-2; [16]): 6.38 ± 0.1 µM | IC50 (HePG-2; [17]): 3.34 ± 0.2 µM | IC50 (HePG-2; [18]): 2.42 ± 0.2 µM | IC50 (HePG-2; [19]): 6.38 ± 0.1 µM | VEGFR2 %inh at conc 0.01 (VEGFR-2): 7.5% | VEGFR2 %inh at conc 0.1 (VEGFR-2): 19% | VEGFR2 %inh at conc 1 (VEGFR-2): 58% | VEGFR2 %inh at conc 10 (VEGFR-2): 84% | target selectivity index EGFR over VGFR-2 (VEGFR-2): 20 | IC50 (VEGFR-2; read-out: IC50 VGFR2): 7.6 ± 0.15 µM | IC50 (VEGFR-2; [20]): 7.58 µM

Cc1nc(NNC(=S)Nc2ccccc2)c2cnn(-c3ccccc3)c2n1 [Compound 9e, 2-(6-Methyl-1-phenyl-1H-pyrazolo[3,4-d]pyrimidin-4-yl)-N-phenylhydrazinecarbothioamide]
EGFR %inh at conc 0.01 (EGFR^WT): 20% | EGFR %inh at conc 0.1 (EGFR^WT): 42% | EGFR %inh at conc 1 (EGFR^WT): 58% | EGFR %inh at conc 10 (EGFR^WT): 83% | IC50 (EGFR^WT; read-out: IC50 EGFR^WT): 0.77 ± 0.018 µM | IC50 (EGFR^WT; [6]): 0.77 µM | IC50 (MCF-7; [7]): 8.99 ± 0.5 µM | IC50 (MCF-7; [8]): 8.16 ± 0.8 µM | IC50 (MCF-7; [9]): 7.45 ± 0.7 µM | IC50 (MCF-7; [10]): 8.99 ± 0.5 µM | IC50 [1]: 3 to 10 µM | IC50 (WI-38; Homo sapiens, WI-38, MTT): > 35 µM | IC50 (WI-38; MTT): 66 ± 0.23 µM | TOPO IiB %inh at conc 0.1 (Topo-II [3]): 4% | TOPO IiB %inh at conc 1 (Topo-II [3]): 16% | TOPO IiB %inh at conc 10 (Topo-II [3]): 34% | TOPO IiB %inh at conc 100 (Topo-II [3]): 65% | IC50 (Topo-II [3]; read-out: IC50 Topo-II): 24.6 ± 0.54 µM | IC50 (Topo-II [3]; [11]): 24.6 µM | target selectivity index EGFR over Topo-II (Topo-II [4]): 31 | melting point: 281 to 282 °C | IC50 (HCT-116; [12]): 6.87 ± 0.5 µM | IC50 (HCT-116; [13]): 6.87 ± 0.5 µM | IC50 (HCT-116; [14]): 6.77 ± 0.4 µM | IC50 (HCT-116; [15]): 5.55 ± 0.4 µM | IC50 (HePG-2; [16]): 7.8 ± 0.4 µM | IC50 (HePG-2; [17]): 8.28 ± 0.8 µM | IC50 (HePG-2; [18]): 5.93 ± 0.5 µM | IC50 (HePG-2; [19]): 7.8 ± 0.4 µM | VEGFR2 %inh at conc 0.01 (VEGFR-2): 14% | VEGFR2 %inh at conc 0.1 (VEGFR-2): 26% | VEGFR2 %inh at conc 1 (VEGFR-2): 46% | VEGFR2 %inh at conc 10 (VEGFR-2): 72% | target selectivity index EGFR over VGFR-2 (VEGFR-2): 21 | IC50 (VEGFR-2; read-out: IC50 VGFR2): 16.2 ± 0.36 µM | IC50 (VEGFR-2; [20]): 16.2 µM
